Assay results reported in patent US20210161855A1, “5-LIPOXYGENASE ANTAGONISTS” (INSTITUTO DE MEDICINA MOLECULAR JOÃO LOBO ANTUNES, priority 2017, published 2021).
Converted amounts (≈) assume the structure as drawn.

Key:
12-lipoxygenase (12-LO) = target: T1, 12-lipoxygenase (12-LO) (Homo sapiens, UniProt P18054); assay: 12-LO inhibition assay, Method A (Cerep); format: biochemical
T1 sequence (P18054 1-663): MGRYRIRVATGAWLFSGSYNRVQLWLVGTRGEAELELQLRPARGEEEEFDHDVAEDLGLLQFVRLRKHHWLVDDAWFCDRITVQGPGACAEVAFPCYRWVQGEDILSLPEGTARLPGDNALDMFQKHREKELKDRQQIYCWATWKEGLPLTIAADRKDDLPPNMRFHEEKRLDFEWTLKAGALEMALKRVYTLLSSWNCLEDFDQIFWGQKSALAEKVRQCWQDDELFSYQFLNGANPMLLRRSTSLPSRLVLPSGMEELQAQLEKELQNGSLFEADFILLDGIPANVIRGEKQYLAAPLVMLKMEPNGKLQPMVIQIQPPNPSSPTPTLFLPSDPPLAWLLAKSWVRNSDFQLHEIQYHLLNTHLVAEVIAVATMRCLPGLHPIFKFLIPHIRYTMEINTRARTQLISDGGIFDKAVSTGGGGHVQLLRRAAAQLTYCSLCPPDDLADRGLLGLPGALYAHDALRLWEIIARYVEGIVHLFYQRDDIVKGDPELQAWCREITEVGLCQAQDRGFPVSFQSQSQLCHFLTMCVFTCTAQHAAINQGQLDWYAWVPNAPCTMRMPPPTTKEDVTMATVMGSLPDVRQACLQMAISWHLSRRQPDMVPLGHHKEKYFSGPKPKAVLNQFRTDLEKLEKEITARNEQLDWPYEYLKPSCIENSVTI
Method: (§1) Method A: 5-Lipoxygenase (5-LO), 12-lipoxygenase (12-LO) and 15-lipoxygenase-2 (15-LO-2) inhibition assays were performed at Cerep, SA (Celle l'Evescault, France) on a fee-for-service basis (Ref 0772^36, 0883^37 and 0893^38, respectively), as described in Table 1.

[1] = target: T2, 15-lipoxygenase-2 (15-LO-2) (Homo sapiens, UniProt O15296); assay: 15-LO-2 inhibition assay, Method A (Cerep); format: biochemical
T2 sequence (O15296 1-676): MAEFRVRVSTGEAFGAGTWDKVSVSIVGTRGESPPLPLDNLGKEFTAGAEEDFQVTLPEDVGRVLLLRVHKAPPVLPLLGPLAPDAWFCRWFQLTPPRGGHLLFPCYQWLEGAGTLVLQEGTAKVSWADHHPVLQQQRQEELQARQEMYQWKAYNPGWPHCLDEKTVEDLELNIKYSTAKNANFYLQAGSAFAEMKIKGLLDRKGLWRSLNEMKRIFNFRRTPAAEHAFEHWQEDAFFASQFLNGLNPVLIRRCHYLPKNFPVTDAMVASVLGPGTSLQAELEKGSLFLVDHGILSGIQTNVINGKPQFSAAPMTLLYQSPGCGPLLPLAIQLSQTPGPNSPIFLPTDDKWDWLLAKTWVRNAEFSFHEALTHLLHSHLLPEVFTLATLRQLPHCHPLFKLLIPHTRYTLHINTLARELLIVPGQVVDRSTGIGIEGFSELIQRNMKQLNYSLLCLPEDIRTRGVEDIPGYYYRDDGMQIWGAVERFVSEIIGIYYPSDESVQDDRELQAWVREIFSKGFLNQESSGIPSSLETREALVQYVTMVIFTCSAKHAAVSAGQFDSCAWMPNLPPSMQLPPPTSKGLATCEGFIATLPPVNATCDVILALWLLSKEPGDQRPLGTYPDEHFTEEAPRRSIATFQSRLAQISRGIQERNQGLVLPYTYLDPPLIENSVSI
Method: as §1

HEL-GFP cells = assay: Xenograft model of human AML, HEL-GFP cells in NSG mice; format: in vivo
Method: The xenograft model of human AML used relies in the intra-bone marrow injection of 5×10^5 HEL-GFP cells into the right tibia of previously irradiated (200 rad) NSG mice. Upon tumor trigger in the blood mouse are randomly assigned for treatment with 1 (50 mg/kg intra-peritoneal) or vehicle.

[2] = tested on: Staphylococcus aureus ATCC 25923; assay: MIC/MBC assay, S. aureus; format: cell-based
Method: Escherichia coli K12 and Staphylococcus aureus ATCC 25923 were grown overnight at 37° C. and re-inoculated in 24-well plates containing 2.5 mL of Luria Bertani medium (LB) to give an optical density of ˜0.01 at 600 nm. Stock solutions of β-lapachone, and lapachol were prepared in DMSO (1% final concentration) and added to the cell suspensions to obtain final concentrations between 5-210 μM. Wells containing a growth control (cell suspensions with 1% DMSO) and a sterile media control were also prepared. The plates were incubated for 18 h at 37° C. and 90 r.p.m. The concentration of compound in the first well in the series that presented no sign of visible growth was reported as the MIC. The OD600 of the cultures was also measured. All the MIC wells were serially diluted in phosphate buffer saline (PBS) and plated onto LB agar plates.

CC1(C)CCC2=C(O1)c1ccccc1C(=O)C2=O [Compound 1, 3,4-dihydro-2,2-dimethyl-2H-naphtho[1,2-b]pyran-5,6-dione]
inhibition at 5 µM (12-lipoxygenase (12-LO)): 38%
inhibition at 5 µM [1]: -13%
Overall survival (HEL-GFP cells; 50 mg/kg intra-peritoneal): significantly increased overall survival
Tumour burden in the blood (HEL-GFP cells; 50 mg/kg intra-peritoneal, day 9): tendency for lower burden
Tumour burden in organs (liver, spleen and lung) (HEL-GFP cells; longest-living treated mouse, sacrificed at day 30, versus non-treated controls): lower tumour burden in all the analysed organs
MIC ([2]; ATCC25923, 18 h, read-out: Minimum inhibitory concentration): 60 µM (≈ 14.5 µg/mL)
MBC ([2]; ATCC25923, read-out: Minimum bactericidal concentration): > 200 µM
